Like-named read-outs stand apart in the source and are kept apart here.
Assays:
[1] = Plasma and brain concentrations in 6 Hz studies (LC-MS/MS); format: in vivo, mouse
Procedure: Sample Collection and Preparation: Mice were anesthetized by isoflurane inhalation (TECH-018) until they reached a surgical plane of anesthesia. Then a syringe (1 mL syringe with a 22 gauge needle) was inserted under the sternum into the heart (TECH-031). Approximately 0.5 mL of blood was collected, deposited into a K2EDTA tube, and stored on ice. Animals were then euthanized by cervical dislocation (TECH-018). Brains were removed, placed into a pre-weighed vial, and snap frozen on dry ice. At the end of the sample collection, blood was centrifuged at 4000 rpm for 10 minutes at 4° C., and the plasma pipetted into a labeled tube. All samples were stored in a −80° C. freezer until bioanalysis (8 days after sample collection for Studies 3A and 3B; 20 days after sample collection for Study 3C).
Plasma and Tissue Sample Analysis: Bead mill polypropylene tubes containing weighed brain tissues were thawed at room temperature and 3 mL of homogenization solvent (water:acetonitrile (1:1, v:v)) was added. The tubes were placed in the Bead Mill Homogenizer (Bead Ruptor Elite Model, Omni International) and shaken at a velocity of 3.70 m/s for a single cycle lasting 30 seconds. The homogenized tube was centrifuged at 4000 rpm for 20 minutes, the supernatant was transferred to a 1.5 mL Eppendorf tube, and stored frozen at −80° C. until analysis. All samples including plasma and brain homogenate extracts (including calibration and quality control (QC) samples prepared in K2EDTA rat plasma), were extracted by protein precipitation. […] The samples in the 1.5 mL tubes were vortex mixed and then centrifuged for 20 minutes at 13,000 rpm. Fifty microliters of the supernatant was mixed with 150 μL of water/acetonitrile (1:1) in a 96 well plate which was centrifuged post mixing for 20 minutes at 4000 rpm, and was then ready for analysis by liquid chromatography tandem mass spectrometry (LC-MS/MS).
Samples were analyzed by a research-grade LC-MS/MS method as follows: […]

CF-1 mice = test: Observation for clinical signs in 6 Hz studies; format: in vivo, mouse; settings: Compound A 8 mg/kg PO, Study 3A
Procedure: Any qualitative changes from normal behavior were recorded.

[2] = Plasma and brain concentrations after MES testing (UHPLC-ESI-MS/MS); settings: CF-1, mouse, in vivo, po;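 further: brain and plasma were sampled from mice right after the efficacy test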

## Cc1cc(N2CCc3cc(F)ccc3C2)cc(C)c1NC(=O)CC(C)(C)C [Compound A, N-[4-(6-fluoro-3,4-dihydro-1H-isoquinolin-2-yl)-2,6-dimethylphenyl]-3,3-dimethylbutanamide]
[1]; 1 hour post dosing
  fold higher brain concentration of Compound A in Study 3C compared to Study 3B: 11 fold
  fold higher plasma concentration of Compound A in Study 3C compared to Study 3B: 12 fold
[1]; CF-1, mouse, brain, po, 1 mg/kg, Study 3A, Compound A 1 mg/kg PO, 1 h, read-out: Brain
  concentration at 1 h: 90 nM
[1]; CF-1, mouse, brain, po, 3 mg/kg, Study 3A, Compound A 3 mg/kg PO, 1 h, read-out: Brain
  concentration at 1 h: 260 nM
[1]; CF-1, mouse, brain, po, 4 mg/kg, Study 3B, Compound A 4 mg/kg PO 1 h alone, read-out: Brain
  concentration at 1 h: 30 ± 20 nM
[1]; CF-1, mouse, brain, po, 4 mg/kg, Study 3C, Compound A 4 mg/kg PO 1 h alone, read-out: Brain
  concentration at 1 h: 410 ± 230 nM
[1]; CF-1, mouse, brain, po, 5 mg/kg, Study 3A, Compound A 5 mg/kg PO, 1 h, read-out: Brain
  concentration at 1 h: 290 nM
[1]; CF-1, mouse, brain, po, 8 mg/kg, Study 3A, Compound A 8 mg/kg PO, 1 h, read-out: Brain
  concentration at 1 h: 700 ± 410 nM
[1]; CF-1, mouse, plasma, po, 1 mg/kg, Study 3A, Compound A 1 mg/kg PO, 1 h, read-out: Plasma
  concentration at 1 h: 40 nM
[1]; CF-1, mouse, plasma, po, 3 mg/kg, Study 3A, Compound A 3 mg/kg PO, 1 h, read-out: Plasma
  concentration at 1 h: 150 nM
[1]; CF-1, mouse, plasma, po, 4 mg/kg, Study 3B, Compound A 4 mg/kg PO 1 h alone, read-out: Plasma
  concentration at 1 h: 14 ± 9 nM
[1]; CF-1, mouse, plasma, po, 4 mg/kg, Study 3C, Compound A 4 mg/kg PO 1 h alone, read-out: Plasma
  concentration at 1 h: 167 ± 89.7 nM
[1]; CF-1, mouse, plasma, po, 5 mg/kg, Study 3A, Compound A 5 mg/kg PO, 1 h, read-out: Plasma
  concentration at 1 h: 180 nM
[1]; CF-1, mouse, plasma, po, 8 mg/kg, Study 3A, Compound A 8 mg/kg PO, 1 h, read-out: Plasma
  concentration at 1 h: 470 ± 290 nM
[1]; Compound A 4 mg/kg PO, 1 h
  fold higher concentrations of Compound A in plasma and brain in Study 3C than in Study 3B: more than 10 fold
[1]; Study 3A, Compound A 8 mg/kg PO, 1 h, 8 mg/kg
  Plasma: 0.47 µM
[1]; Study 3A, Compound A 8 mg/kg PO, 1 h, 8 mg/kg, read-out: Brain
  concentration at 1 h: 700 nM
[1]; Study 3B, Compound A 4 mg/kg PO 1 h alone, 4 mg/kg
  Plasma: 0.01 ± 0.01 µM
[1]; Study 3B, Compound A 4 mg/kg PO 1 h alone, listed as Cmpd A, 4 mg/kg
  Plasma: 0.01 µM
[1]; Study 3B, Compound A 4 mg/kg PO 1 h alone, listed as Cmpd A, 4 mg/kg, read-out: Brain
  concentration at 1 h: 30 nM
[1]; Study 3C, Compound A 4 mg/kg PO 1 h alone, 4 mg/kg
  Plasma: 0.17 µM
[1]; Study 3C, Compound A 4 mg/kg PO 1 h alone, 4 mg/kg, read-out: Brain
  concentration at 1 h: 410 nM
[1]; mouse, brain, oral, Studies 3B+3C combined, analyte Compound A, 4 mg/kg PO + Levetiracetam 300 mg/kg IP, read-out: Brain
  concentration at 1 h: 210 nM
[1]; mouse, brain, oral, Study 3B, analyte Compound A, 4 mg/kg PO + Levetiracetam 300 mg/kg IP, read-out: Brain
  concentration at 1 h: 40 nM
[1]; mouse, brain, oral, Study 3C, analyte Compound A, 4 mg/kg PO + Levetiracetam 300 mg/kg IP, read-out: Brain
  concentration at 1 h: 383 nM
[1]; mouse, brain, po, 4 mg/kg, Studies 3B+3C combined, Compound A 4 mg/kg PO 1 h alone, read-out: Brain
  concentration at 1 h: 220 nM
[1]; mouse, brain, po, 4 mg/kg, Study 3B, Compound A 4 mg/kg PO 1 h alone, read-out: Brain
  concentration at 1 h: 30 ± 20 nM
[1]; mouse, brain, po, 4 mg/kg, Study 3C, Compound A 4 mg/kg PO 1 h alone, read-out: Brain
  concentration at 1 h: 410 ± 230 nM
[1]; mouse, plasma, oral, Studies 3B+3C combined, analyte Compound A, 4 mg/kg PO + Levetiracetam 300 mg/kg IP, read-out: Plasma
  concentration at 1 h: 90 nM
[1]; mouse, plasma, oral, Study 3B, analyte Compound A, 4 mg/kg PO + Levetiracetam 300 mg/kg IP, read-out: Plasma
  concentration at 1 h: 20 nM
[1]; mouse, plasma, oral, Study 3C, analyte Compound A, 4 mg/kg PO + Levetiracetam 300 mg/kg IP, read-out: Plasma
  concentration at 1 h: 170 nM
[1]; mouse, plasma, po, 4 mg/kg, Studies 3B+3C combined, Compound A 4 mg/kg PO 1 h alone, read-out: Plasma
  concentration at 1 h: 100 nM
[1]; mouse, plasma, po, 4 mg/kg, Study 3B, Compound A 4 mg/kg PO 1 h alone, read-out: Plasma
  concentration at 1 h: 14 ± 9 nM
[1]; mouse, plasma, po, 4 mg/kg, Study 3C, Compound A 4 mg/kg PO 1 h alone, read-out: Plasma
  concentration at 1 h: 170 ± 90 nM
CF-1 mice
  brain concentration of the one animal that showed tremor and was cold to the touch: 1650 nM
  plasma concentration of the one animal that showed tremor and was cold to the touch: 1160 nM
[2]; 1 mg/kg, Concentration Brain, Compound A 1 mg/kg PO single dose, tissue collection 0.5 hr
  concentration at 0.5 h: 270 nM
[2]; 1 mg/kg, Concentration Brain, Compound A 1 mg/kg PO single dose, tissue collection 2 hr
  concentration at 2 h: 190 nM
[2]; 1 mg/kg, Concentration Brain, Compound A 1 mg/kg PO, 0.5 hr
  concentration at 0.5 h: 97.9 ng/g
[2]; 1 mg/kg, Concentration Brain, Compound A 1 mg/kg PO, 2 hr
  concentration at 2 h: 70.2 ng/g
[2]; 1 mg/kg, Concentration Plasma, Compound A 1 mg/kg PO single dose, tissue collection 0.5 hr
  concentration at 0.5 h: 130 nM
[2]; 1 mg/kg, Concentration Plasma, Compound A 1 mg/kg PO single dose, tissue collection 2 hr
  concentration at 2 h: 100 nM
[2]; 1 mg/kg, Concentration Plasma, Compound A 1 mg/kg PO, 0.5 hr
  concentration at 0.5 h: 48.9 ng/mL
[2]; 1 mg/kg, Concentration Plasma, Compound A 1 mg/kg PO, 2 hr
  concentration at 2 h: 35.8 ng/mL
[2]; 2 mg/kg, Concentration Brain, Compound A 2 mg/kg PO single dose, tissue collection 0.5 hr
  concentration at 0.5 h: 360 nM
[2]; 2 mg/kg, Concentration Brain, Compound A 2 mg/kg PO single dose, tissue collection 2 hr
  concentration at 2 h: 210 nM
[2]; 2 mg/kg, Concentration Brain, Compound A 2 mg/kg PO, 0.5 hr
  concentration at 0.5 h: 132 ng/g
[2]; 2 mg/kg, Concentration Brain, Compound A 2 mg/kg PO, 2 hr
  concentration at 2 h: 75.8 ng/g
[2]; 2 mg/kg, Concentration Plasma, Compound A 2 mg/kg PO single dose, tissue collection 0.5 hr
  concentration at 0.5 h: 220 nM
[2]; 2 mg/kg, Concentration Plasma, Compound A 2 mg/kg PO single dose, tissue collection 2 hr
  concentration at 2 h: 130 nM
[2]; 2 mg/kg, Concentration Plasma, Compound A 2 mg/kg PO, 0.5 hr
  concentration at 0.5 h: 80.7 ng/mL
[2]; 2 mg/kg, Concentration Plasma, Compound A 2 mg/kg PO, 2 hr
  concentration at 2 h: 46.7 ng/mL
[2]; 4 mg/kg, Concentration Brain, Compound A 4 mg/kg PO single dose, tissue collection 0.5 hr
  concentration at 0.5 h: 640 nM
[2]; 4 mg/kg, Concentration Brain, Compound A 4 mg/kg PO single dose, tissue collection 2 hr
  concentration at 2 h: 360 nM
[2]; 4 mg/kg, Concentration Brain, Compound A 4 mg/kg PO, 0.5 hr
  concentration at 0.5 h: 235 ng/g
[2]; 4 mg/kg, Concentration Brain, Compound A 4 mg/kg PO, 2 hr
  concentration at 2 h: 131 ng/g
[2]; 4 mg/kg, Concentration Plasma, Compound A 4 mg/kg PO single dose, tissue collection 0.5 hr
  concentration at 0.5 h: 420 nM
[2]; 4 mg/kg, Concentration Plasma, Compound A 4 mg/kg PO single dose, tissue collection 2 hr
  concentration at 2 h: 230 nM
[2]; 4 mg/kg, Concentration Plasma, Compound A 4 mg/kg PO, 0.5 hr
  concentration at 0.5 h: 154 ng/mL
